Source: article PMC11945657, “Microwave-Assisted Synthesis of Morpholine-Based Chalcones as Reversible MAO-A Inhibitors in the Management of Mental Depression” (Pharmaceuticals, 2025)
“And” between values parts separate entries of the source, which are not always exact repeats. Equal values may be shown once. Read-outs that look alike come from different tables or passages of the source.

Key:
[1] = DPPH free radical scavenging antioxidant assay
Experimental: H2O2 produced during metabolic events in the brain may be crucial for signaling and metabolic functions. The compounds were screened to check their potential to inhibit ROS through the DPPH assay. […] However, further studies are required to confirm this effect.
The DPPH approach, which gauges the free radical scavenging activity, was used to evaluate the antioxidant properties of the compounds. The test was performed according to the literature method. The stock solution of DPPH (0.5 mM) was prepared, and methanol was used to create each dilution. The different concentrations (10, 25, 50, 75, and 100 μM) of the test compounds (C1–C15) were prepared and compared with the standard ascorbic acid. The percentage antioxidant activity of the compounds was calculated using the following formula: % Antioxidant activity = [(Aabsorbance − Atest)/Aabsorbance] × 100.

hMAO-A = target: T1, hMAO-A (Homo sapiens, UniProt P21397); assay: MAO inhibition assay (Amplex Red, fluorimetric), MAO-A
T1 sequence (P21397 1-527): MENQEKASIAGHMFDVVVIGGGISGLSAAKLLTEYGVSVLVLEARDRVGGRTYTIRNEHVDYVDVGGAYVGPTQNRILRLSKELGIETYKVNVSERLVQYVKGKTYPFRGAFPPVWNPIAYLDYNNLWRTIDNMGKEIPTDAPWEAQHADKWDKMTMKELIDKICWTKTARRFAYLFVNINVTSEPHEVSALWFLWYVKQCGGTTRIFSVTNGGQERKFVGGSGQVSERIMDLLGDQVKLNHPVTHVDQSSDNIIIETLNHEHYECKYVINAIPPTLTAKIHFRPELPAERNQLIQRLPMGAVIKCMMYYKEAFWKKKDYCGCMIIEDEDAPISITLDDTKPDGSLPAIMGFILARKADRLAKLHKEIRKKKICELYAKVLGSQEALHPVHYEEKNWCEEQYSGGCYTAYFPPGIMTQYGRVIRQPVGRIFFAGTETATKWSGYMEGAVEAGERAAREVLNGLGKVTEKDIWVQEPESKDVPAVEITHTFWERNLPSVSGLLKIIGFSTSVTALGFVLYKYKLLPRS

hMAO-B = target: T2, hMAO-B (Homo sapiens, UniProt P27338); assay: MAO inhibition assay (Amplex Red, fluorimetric), MAO-B
T2 sequence (P27338 1-520): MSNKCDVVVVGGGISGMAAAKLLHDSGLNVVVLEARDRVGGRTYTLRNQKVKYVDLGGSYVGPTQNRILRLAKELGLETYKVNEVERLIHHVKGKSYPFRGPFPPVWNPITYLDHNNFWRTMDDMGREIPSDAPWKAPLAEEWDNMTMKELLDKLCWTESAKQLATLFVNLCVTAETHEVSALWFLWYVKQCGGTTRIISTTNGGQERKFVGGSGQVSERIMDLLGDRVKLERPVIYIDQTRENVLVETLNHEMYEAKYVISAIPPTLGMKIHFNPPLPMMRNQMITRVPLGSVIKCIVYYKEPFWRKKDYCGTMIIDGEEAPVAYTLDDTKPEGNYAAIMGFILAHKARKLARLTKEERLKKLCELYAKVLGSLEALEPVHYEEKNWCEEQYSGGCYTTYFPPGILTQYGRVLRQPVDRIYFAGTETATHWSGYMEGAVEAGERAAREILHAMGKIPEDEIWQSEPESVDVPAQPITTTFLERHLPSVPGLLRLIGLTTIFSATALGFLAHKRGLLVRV

[2] = read-out: IC50 Values MAO-A, class symbol, IC50 not calculated
[3] = read-out: Percentage Inhibition at 20 μM MAO-A, 20 μM
[4] = read-out: Percentage Inhibition at 20 μM MAO-B
[5] = read-out: Percentage Inhibition at 20 μM MAO-A

Row | inhibition at 20 µM (hMAO-A; [2]) [%] | inhibition at 20 µM (hMAO-A; [3]) [%] | inhibition at 20 µM (hMAO-B; read-out: IC50 Values MAO-B) [%] | inhibition at 20 µM (hMAO-B; [4]) [%] | IC50 (hMAO-A) [µM] | Percentage Inhibition at 20 μM MAO-A (hMAO-A; 20 μM) [%] | SMILES | % Antioxidant Activity ([1]; 10 µM) [%] | % Antioxidant Activity ([1]; 25 µM) [%] | % Antioxidant Activity ([1]; 50 µM) [%] | % Antioxidant Activity ([1]; 75 µM) | % Antioxidant Activity ([1]; 100 µM) | inhibition at 20 µM (hMAO-A; [5]) [%] | % Antioxidant Activity ([1]; 100 µM, listed as ascorbic acid) [%] | inhibition at 20 µM (hMAO-A; read-out: IC50 Values MAO-A) [%]
1 | < 50 | 19.4 | < 50 | 4.74 |  |  | O=C(/C=C/c1ccc(Cl)c(Cl)c1)c1ccc(N2CCOCC2)cc1 [Compound C2, (E)-3-(3,4-Dichlorophenyl)-1-(4-morpholinophenyl)prop-2-en-1-one] | 6.63 | 25.78 | 37.18 | 50% and 50.91% | 50% and 53.12% |  |  | 
2 | < 50 | 33.9 | < 50 | 12.4 |  |  | O=C(/C=C/c1cccc(F)c1)c1ccc(N2CCOCC2)cc1 [Compound C10, (E)-3-(3-Fluorophenyl)-1-(4-morpholinophenyl)prop-2-en-1-one] | 17.09 | 21.05 | 34.56 | 42.27% | 32.62% |  |  | 
3 |  |  |  |  |  |  | C#CCN(C)CCCOc1ccc(Cl)cc1Cl [Clorgyline, clorgyline, reference compound] |  |  |  |  |  | 95 |  | 
4 | < 50 | 3.11 | < 50 | 6.32 |  |  | Cc1cccc(/C=C/C(=O)c2ccc(N3CCOCC3)cc2)c1 [Compound C8, (E)-1-(4-Morpholinophenyl)-3-(m-tolyl)prop-2-en-1-one] | 16.56 | 31.47 | 36.01 | 49.24% | 66.42% |  |  | 
5 | < 50 | 36.8 | < 50 | 6.54 |  |  | O=C(/C=C/c1ccc(Br)c(F)c1)c1ccc(N2CCOCC2)cc1 [Compound C5, (E)-3-(4-Bromo-3-fluorophenyl)-1-(4-morpholinophenyl)prop-2-en-1-one] | 19.11 | 23.41 | 38.15 | 49.88% | 50% and 50.95% |  |  | 
6 |  |  |  |  |  |  | O=C1O[C@H]([C@@H](O)CO)C(O)=C1O [Ascorbic acid, ascorbic acid, reference compound] | 8.03 | 20.27 | 40.23 | 46.33% | 58.53% |  | 50 | 
7 |  | 67.7 | < 50 | 23.9 | 9.35 ± 0.11 | 67.76 | O=C(/C=C/c1ccccc1Cl)c1ccc(N2CCOCC2)cc1 [Compound C12, (E)-3-(2-Chlorophenyl)-1-(4-morpholinophenyl)prop-2-en-1-one] | 3.03 | 19.54 | 40.88 | 44.56% | 35.95% |  |  | 
8 | < 50 | 37.7 | < 50 | 7.11 |  |  | O=C(/C=C/c1ccc(F)cc1)c1ccc(N2CCOCC2)cc1 [Compound C3, (E)-3-(4-Fluorophenyl)-1-(4-morpholinophenyl)prop-2-en-1-one] | 14.58 | 38.25 | 40.31 | 50% and 53.10% | 56.87% |  |  | 
9 | < 50 | 15.8 | < 50 | 5.56 |  |  | COc1ccc(/C=C/C(=O)c2ccc(N3CCOCC3)cc2)cc1OC [Compound C4, (E)-3-(3,4-Dimethoxyphenyl)-1-(4-morpholinophenyl)prop-2-en-1-one] | 16.37 | 32.47 | 41.07 | 33.69% | 50% and 52.62% |  |  | 
10 |  | 6.17 | < 50 | 25.7 |  |  | Cc1ccccc1/C=C/C(=O)c1ccc(N2CCOCC2)cc1 [Compound C15, (E)-1-(4-Morpholinophenyl)-3-(o-tolyl)prop-2-en-1-one] | 6.51 | 30.71 | 41.06 | 32.50% | 29.17% |  |  | 
11 | < 50 | 21.1 | < 50 | 18.6 |  |  | COc1ccccc1/C=C/C(=O)c1ccc(N2CCOCC2)cc1 [Compound C11, (E)-3-(2-Methoxyphenyl)-1-(4-morpholinophenyl)prop-2-en-1-one] | 13.89 | 16.00 | 40.26 | 27.09% | 36.45% |  |  | 

Row | SMILES | inhibition at 20 µM (hMAO-A; [2]) [%] | inhibition at 20 µM (hMAO-A; [3]) [%] | inhibition at 20 µM (hMAO-B; read-out: IC50 Values MAO-B) [%] | inhibition at 20 µM (hMAO-B; [4]) [%] | IC50 (hMAO-A) [µM] | Percentage Inhibition at 20 μM MAO-A (hMAO-A; 20 μM) [%] | % Antioxidant Activity ([1]; 10 µM) [%] | % Antioxidant Activity ([1]; 25 µM) [%] | % Antioxidant Activity ([1]; 50 µM) [%] | % Antioxidant Activity ([1]; 75 µM) | % Antioxidant Activity ([1]; 100 µM) | inhibition at 20 µM (hMAO-A; [5]) [%] | % Antioxidant Activity ([1]; 100 µM, listed as ascorbic acid) [%] | inhibition at 20 µM (hMAO-A; read-out: IC50 Values MAO-A) [%]
12 | C#CCN(C)Cc1ccccc1 [Pargyline, pargyline, reference compound] |  |  |  | 99 |  |  |  |  |  |  |  | < 50 |  | 
13 | CCc1ccc(/C=C/C(=O)c2ccc(N3CCOCC3)cc2)cc1 [Compound C13, (E)-3-(4-Ethylphenyl)-1-(4-morpholinophenyl)prop-2-en-1-one] |  |  | < 50 | 17.5 |  |  | 2.54 | 15.55 | 41.40 | 22.18% | 66.87% | 7.25 |  | 
14 | O=C(/C=C/c1ccc(Cl)cc1)c1ccc(N2CCOCC2)cc1 [Compound C7, (E)-3-(4-Chlorophenyl)-1-(4-morpholinophenyl)prop-2-en-1-one] |  |  | < 50 | 7.43 |  |  | 13.81 | 15.62 | 32.06 | 50% and 52.12% | 50% and 53.37% | 21.4 |  | < 50
15 | O=C(/C=C/c1ccc(Br)cc1)c1ccc(N2CCOCC2)cc1 [Compound C1, (E)-3-(4-Bromophenyl)-1-(4-morpholinophenyl)prop-2-en-1-one] |  |  | < 50 | 6.59 |  |  | 9.24 | 21.80 | 35.78 | 50% and 53.13% | 50% and 54.82% | 13.6 |  | < 50
16 | Cc1ccc(/C=C/C(=O)c2ccc(N3CCOCC3)cc2)cc1 [Compound C9, (E)-1-(4-Morpholinophenyl)-3-(p-tolyl)prop-2-en-1-one] |  |  | < 50 | 6.77 |  |  | 8.65 | 23.43 | 35.75 | 39.19% | 44.66% | 4.95 |  | < 50
